Experimental data from patent US7928098B2, “Therapeutic and/or preventive agents for a sleep disorder” (Kyowa Hakko Kirin Co., Ltd., priority 2005, dated 2011).
Values belong to the molecule of their own block, whether it stands above or below them.

Legend:
ddY male mice = experiment: Effect on pentobarbital sodium-induced sleeping time (loss of righting reflex); assay type: in vivo; settings: test compound 10 mg/kg p.o. one hour before pentobarbital-Na 25 mg/kg s.c.
Experimental: The test was conducted to examine influence of Compound (I) of the present invention on pentobarbital sodium-induced sleeping time, according to the method of Iyakuhin no Kaihatsu, Vol. 9, Iyakuhin no Tansaku I, “antihypnotic”, p. 220-226, Hirokawa Shoten.
For the test, ddY male mice (19-21 g body weight; Japan SLC, Inc.) were used. All test compounds were used by suspending in distilled water (Otsuka Pharmaceutical Factory, Inc.) containing 0.5 volume/weight % methylcellulose (0.5% MC: Wako Pure Chemical Industries, Ltd.). A volume of 0.1 mL was administered per 10 g body weight of mice.
Groups of seven mice were used. To the control groups were orally administrated 0.5% MC, whereas a suspension of the test compound was orally administered to the test compound administered groups. One hour after the administration, pentobarbital sodium (pentobarbital-Na: Tokyo Chemical Industry Co., Ltd., 25 mg/kg) was administered subcutaneously. Mouse placed in a recumbent position, the mouse immediately returns to a proper upright position (this is known as righting reflex). However, the administration of pentobarbital sodium eliminated the righting reflex in the control groups. The time period in which the administration of […] eliminated the righting reflex was regarded as a sleeping time. By a measurement of time disappearing righting reflex immediately after the administration, the sleeping time was determined.

Structure (SMILES): O=C(Nc1nc(-c2ccco2)c(-c2ccncc2)s1)c1cccnc1 [Compound 5, N-[4-(2-Furyl)-5-(4-pyridyl)thiazol-2-yl]pyridine-3-carboxamide]
Sleeping time (min) Mean value ± standard deviation (ddY male mice; Table 5-1, groups of seven, controls 52.12 ± 5.20 (r5) and 35.56 ± 5.21 (r11)): 0.82 ± 0.82 min

Structure (SMILES): O=C(Nc1nc(-c2ccco2)c(C(=O)c2ccccc2)s1)c1ccncc1 [Compound 508, N-[5-Benzoyl-4-(2-furyl)thiazol-2-yl]pyridine-4-carboxamide]
Sleeping time (min) Mean value ± standard deviation (ddY male mice; Table 5-2, groups of seven, controls 40.00 ± 5.32 (r5) and 45.87 ± 4.17 (r12)): 14.26 ± 4.35 min

Structure (SMILES): CC(C)n1nc(-c2sc(NC(=O)c3ccncc3)nc2-c2ccco2)ccc1=O [Compound 39, N-[4-(2-Furyl)-5-(1-isopropyl-6-oxo-1,6-dihydropyridazin-3-yl)thiazol-2-yl]pyridine-4-carboxamide]
melting point: 190 to 194 °C

Structure (SMILES): CCn1cc(C(=O)Nc2nc(-c3ccco3)c(C(=O)c3ccccc3)s2)ccc1=O [Compound 59, N-[5-Benzoyl-4-(2-furyl)thiazol-2-yl]-1-ethyl-2-oxo-1,2-dihydropyridine-5-carboxamide]
melting point: 109 to 114 °C

Structure (SMILES): COC1(CN2CCN(CC(=O)Nc3nc(-c4ccco4)c(C(=O)C4CCOCC4)s3)CC2)CC1 [Compound 472, N-[4-(2-Furyl)-5-(tetrahydropyran-4-ylcarbonyl)thiazol-2-yl]-2-{4-[(1-methoxycyclopropyl)methyl]piperazin-1-yl}acetamide]
melting point: 155 to 157 °C

Structure (SMILES): O=C(Nc1nc(-c2ccco2)c(C(=O)c2cnccn2)s1)c1ccncc1 [Compound 281, N-[4-(2-Furyl)-5-(pyrazin-2-ylcarbonyl)thiazol-2-yl]pyridine-4-carboxamide]
melting point: > 300 °C

Structure (SMILES): O=C(Nc1nc(-c2ccco2)c(C(=O)c2ccncc2)s1)c1ccncc1 [Compound 236, N-[4-(2-Furyl)-5-(pyridin-4-ylcarbonyl)thiazol-2-yl]pyridine-4-carboxamide]
melting point: 276 to 285 °C

Structure (SMILES): Cc1cncc(C(=O)Nc2nc(-c3ccco3)c(C(=O)C3CCOCC3)s2)c1 [Compound 411, N-[4-(2-Furyl)-5-(tetrahydropyran-4-ylcarbonyl)thiazol-2-yl]-5-methylpyridine-3-carboxamide]
melting point: 239 to 243 °C

Structure (SMILES): N#Cc1ccc(C(=O)Nc2nc(-c3ccco3)c(C(=O)C3CCC3)s2)cc1 [Compound 332, 4-Cyano-N-[5-(cyclobutylcarbonyl)-4-(2-furyl)thiazol-2-yl]benzamide]
melting point: 220 to 225 °C

Structure (SMILES): O=C(Nc1nc(-c2ccco2)c(C(=O)C2CCOCC2)s1)c1c(F)cccc1F [Compound 397, 2,6-Difluoro-N-[4-(2-furyl)-5-(tetrahydropyran-4-ylcarbonyl)thiazol-2-yl]benzamide]
melting point: 168 to 170 °C

Structure (SMILES): COc1cccc(C(=O)c2sc(NC(=O)c3ccncc3)nc2-c2ccco2)n1 [Compound 191, N-[4-(2-Furyl)-5-(6-methoxypyridin-2-ylcarbonyl)thiazol-2-yl]pyridine-4-carboxamide]
melting point: 247 to 250 °C

Structure (SMILES): COC1CCC(C(=O)c2sc(NC(=O)c3ccncc3)nc2-c2ccco2)CC1 (stereo not shown) [Compound 347, N-[4-(2-Furyl)-5-(4-methoxycyclohexylcarbonyl)thiazol-2-yl]pyridine-4-carboxamide]
melting point: 180 to 187 °C

Structure (SMILES): Cc1ccccc1C(=O)Nc1nc(-c2ccco2)c(C(=O)C2CCOCC2)s1 [Compound 363, N-[4-(2-Furyl)-5-(tetrahydropyran-4-ylcarbonyl)thiazol-2-yl]-2-methylbenzamide]
melting point: 204 to 206 °C

Structure (SMILES): Cc1csc(C(=O)c2sc(NC(=O)c3ccncc3)nc2-c2ccco2)n1 [Compound 257, N-[4-(2-Furyl)-5-(4-methylthiazol-2-ylcarbonyl)thiazol-2-yl]pyridine-4-carboxamide]
melting point: 250 to 255 °C

Structure (SMILES): Cc1cc(C(=O)Nc2nc(-c3ccco3)c(C(=O)C3CCOCC3)s2)ccn1 [Compound 405, N-[4-(2-Furyl)-5-(tetrahydropyran-4-ylcarbonyl)thiazol-2-yl]-2-methylpyridine-4-carboxamide]
melting point: 169 to 173 °C

Structure (SMILES): O=C(Nc1nc(-c2ccco2)c(C(=O)C2CCOCC2)s1)c1cccc2c1OCCO2 [Compound 400, N-[4-(2-Furyl)-5-(tetrahydropyran-4-ylcarbonyl)thiazol-2-yl]-1,4-benzodioxane-5-carboxamide]
melting point: 188 to 190 °C

Structure (SMILES): O=C(Nc1nc(-c2ccco2)c(C(=O)C2CCOCC2)s1)c1ccccc1OC(F)(F)F [Compound 380, N-[4-(2-Furyl)-5-(tetrahydropyran-4-ylcarbonyl)thiazol-2-yl]-2-(trifluoromethoxy)benzamide]
melting point: 131 to 134 °C

Structure (SMILES): O=C(Nc1nc(-c2ccco2)c(C(=O)C(F)(F)F)s1)c1ccncc1 [Compound 287, N-[4-(2-Furyl)-5-(trifluoroacetyl)thiazol-2-yl]pyridine-4-carboxamide]
melting point: 268 to 270 °C

Structure (SMILES): O=C(Nc1nc(-c2ccco2)c(C(=O)c2ccccn2)s1)c1ccnc(N2CCCCC2)c1 [Compound 126, N-[4-(2-Furyl)-5-(pyridin-2-ylcarbonyl)thiazol-2-yl]-2-piperidinopyridine-4-carboxamide]
melting point: 136 to 141 °C

Structure (SMILES): O=C(Nc1nc(-c2ccco2)c(C(=O)C2CCOCC2)s1)c1cnccn1 [Compound 414, N-[4-(2-Furyl)-5-(tetrahydropyran-4-ylcarbonyl)thiazol-2-yl]pyrazine-2-carboxamide]
melting point: 200 to 205 °C

Structure (SMILES): CN(C)CC(=O)Nc1nc(-c2ccco2)c(C(=O)C2CCOCC2)s1 [Compound 438, 2-(Dimethylamino)-N-[4-(2-furyl)-5-(tetrahydropyran-4-ylcarbonyl)thiazol-2-yl]acetamide]
melting point: 129 to 130 °C

Structure (SMILES): O=C(Nc1nc(-c2ccco2)c(C(=O)c2ccccn2)s1)c1ccn(Cc2ccccc2)c(=O)c1 [Compound 140, 1-Benzyl-N-[4-(2-furyl)-5-(pyridin-2-ylcarbonyl)thiazol-2-yl]-2-oxo-1,2-dihydropyridine-4-carboxamide]
melting point: 269 to 270 °C

Structure (SMILES): COCCN(C)c1cc(C(=O)Nc2nc(-c3ccco3)c(C(=O)c3ccccc3)s2)ccn1 [Compound 53, N-[5-Benzoyl-4-(2-furyl)thiazol-2-yl]-2-[N-(2-methoxyethyl)-N-methylamino]pyridine-4-carboxamide]
melting point: 145 to 147 °C

Next, values leading:

melting point: 174 to 176 °C
Structure (SMILES): Cc1ccoc1C(=O)Nc1nc(-c2ccco2)c(C(=O)c2ccccn2)s1 [Compound 145, N-[4-(2-Furyl)-5-(pyridin-2-ylcarbonyl)thiazol-2-yl]-3-methylfuran-2-carboxamide]

melting point: 184 to 185 °C
Structure (SMILES): O=C(CCl)Nc1nc(-c2ccco2)c(C(=O)c2ccccn2)s1 [Compound 170, 2-Chloro-N-[4-(2-furyl)-5-(pyridin-2-ylcarbonyl)thiazol-2-yl]acetamide]

melting point: 148 to 149 °C
Structure (SMILES): CCCC(=O)Nc1nc(-c2ccco2)c(C(=O)c2ccccn2)s1 [Compound 97, N-[4-(2-Furyl)-5-(pyridin-2-ylcarbonyl)thiazol-2-yl]-butanamide]

melting point: 104 to 106 °C
Structure (SMILES): CC1CCN(CC(=O)Nc2nc(-c3ccco3)c(C(=O)c3ccccn3)s2)CC1 [Compound 174, N-[4-(2-Furyl)-5-(pyridin-2-ylcarbonyl)thiazol-2-yl]-2-(4-methylpiperidino)acetamide]

melting point: 278 to 283 °C (dec.)
Structure (SMILES): O=C(Nc1nc(-c2ccco2)c(C(=O)c2ccccn2)s1)c1ccc([N+](=O)[O-])o1 [Compound 144, N-[4-(2-Furyl)-5-(pyridin-2-ylcarbonyl)thiazol-2-yl]-5-nitrofuran-2-carboxamide]

melting point: 223 to 230 °C
Structure (SMILES): O=C(Nc1nc(-c2ccco2)c(C(=O)c2ccccn2)s1)c1ccno1 [Compound 150, N-[4-(2-Furyl)-5-(pyridin-2-ylcarbonyl)thiazol-2-yl]isoxazole-5-carboxamide]

melting point: 150 to 151 °C
Structure (SMILES): COCCNC(=O)Nc1nc(-c2ccco2)c(C(=O)c2ccccn2)s1 [Compound 168, N-[4-(2-Furyl)-5-(pyridin-2-ylcarbonyl)thiazol-2-yl]-N′-(2-methoxyethyl)urea]

melting point: 259 to 262 °C
Structure (SMILES): O=C(Nc1nc(-c2ccco2)c(C(=O)c2ccccn2)s1)c1cncc(Br)c1 [Compound 134, 5-Bromo-N-[4-(2-furyl)-5-(pyridin-2-ylcarbonyl)thiazol-2-yl]pyridine-3-carboxamide]

melting point: 187 to 188 °C
Structure (SMILES): COc1ccc(C(=O)Nc2nc(-c3ccco3)c(C(=O)c3ccccn3)s2)cc1 [Compound 110, N-[4-(2-Furyl)-5-(pyridin-2-ylcarbonyl)thiazol-2-yl]-4-methoxybenzamide]

melting point: 208 to 209 °C
Structure (SMILES): Cc1cnc(C(=O)Nc2nc(-c3ccco3)c(C(=O)c3ccccn3)s2)cn1 [Compound 138, N-[4-(2-Furyl)-5-(pyridin-2-ylcarbonyl)thiazol-2-yl]-5-methylpyrazine-2-carboxamide]

melting point: 214 to 220 °C (dec.)
Structure (SMILES): O=C(CN1CCC(N2CCCCC2)CC1)Nc1nc(-c2ccco2)c(C(=O)c2ccccn2)s1 [Compound 178, N-[4-(2-Furyl)-5-(pyridin-2-ylcarbonyl)thiazol-2-yl]-2-(4-piperidinopiperidino)acetamide]
